Laboratory results from US8765689B2, “Anti-ageing peptides modulating survivin and compositions including same” (ISP Investments Inc., priority 2010, dated 2014).
Ends that are not written are not given here.

What was measured:
[1] = test system: Survivin protein; assay: Survivin protein expression by Western Blotting on cultured cellular fractions RA and SA1; format: cell-based, human; conditions: 48 hours, compound diluted to 3% (from a 10^-4 M solution)
Experimental: To investigate the role of the CPC proteins in the maintenance and protection of epidermal adult stem cells under various types of stress, several fractions of primary cells of human epidermis were prepared. Fractioning was carried out based on the adhesion time of cells to collagen IV: less than 20 minutes corresponds to fast adhesion (fraction RA), less than 5 hours, to slow adhesion No 1 (fraction SA1), less than 16 hours, to slow adhesion No 2 (fraction SA2), and lastly, non-adhering keratinocytes (fractions NA). […]
An investigation of the modulator effect of the peptide SEQ ID NO: 2 was conducted by evaluating the expression of the Survivin protein by Western Blotting on the cultured cellular fractions RA and SA1. The Western Blot technique is a conventional semi-quantitative method for assessing the proportion of proteins in cells.
Fractions RA and SA1 were grown in boxes 100 mm in diameter at 37° C. in a humidified atmosphere containing 5% CO2 for 48 hours with or without the compound, diluted to 3% (from a 10^−4 M solution). […] The quantitative evaluation of the proteins in the cells is performed using the Chemiimager software (Alpha Innotech Corporation USA). The amount of proteins is expressed as a percentage of the light intensity compared with that of the control conditions, under which no treatment has been received.

[2] = test system: Keratin K19; assay: Keratin K19 immunolabeling in UV-irradiated hair follicles maintained in culture; format: cell-based; conditions: hair follicles treated with 1% peptide 24 hours before UV irradiation (UVA 5 J/cm, UVB 200 mJ/cm^2); image analysis
Experimental: The hair follicles were sampled from a biopsy using a scalpel and fine pliers, and then cultured in 24-well plates using William's E medium in the presence of antibiotics (0.2% Primocin), 10 μg/ml insulin, 10 ng/ml hydrocortisone and 2 mmol/L L-glutamine.
The follicles were either treated or not with the 1% peptide compound SEQ ID NO: 2 in Williams' medium and then incubated for 24 hours. UV irradiation was then applied (UVA: 5 J/cm, UVB 200 mJ/cm^2), and the follicles were then re-cultured for 24 hours. At the end of the experiment, the follicles were incorporated within OCT and frozen at −196° C. (liquid nitrogen). The follicles were then placed in a cryostat in order to prepare 6-μm sections at a temperature of −23° C. The slides containing the sections were placed in an acetone bath for 10 minutes (fixing) and then rinsed.
The fixed sections were rinsed once with PBS for 5 minutes, and then wrapped in Pappen. Each section was incubated with 5 μl 5%-BSA for 30 minutes. Then, 50 μl of primary anti-Cytokeratin K19 antibody (Progen, Mouse monoclonal) diluted to 1/50th were added and incubated for one hour with stirring in a humid chamber. After rinsing with PBS for 30 minutes, 50 μl of a fluorescence-labeled secondary antibody was added and left for one hour in the dark with stirring in a humid chamber. […]

[3] = test system: cellular fraction RA (enriched with epidermal adult stem cells); assay: Comets test on cellular fraction RA after UVB irradiation; format: cell-based, human; conditions: RA cells cultured 24 hours with peptide at 1%, then UVB 60 mJ/cm^2
Experimental: The comets test is a test that allows damage caused to DNA to be quantified at a cellular level.
To this end, in order to confirm the protective effect of a peptide compound according to the present invention, cells of the RA type were cultured for 24 hours with the peptide compound of sequence SEQ ID NO: 2 at a concentration of 1%, and then irradiated with
UVB radiation at 60 mJ/cm^2. […] The cells were then removed by trypsination from their carrier, and then centrifuged at 900 rpm for 5 minutes before being concentrated and counted.
A specific cell count (25,000 cells) was then incorporated into a 0.75% Low Melting agarose gel, and then deposited on a glass slide previously coated with 1% agarose. The slides were then immersed in a lysis solution for 1.5 hours at 4° C., and then in an alkaline solution for 20 minutes at 4° C. The cells were then lysed and the DNA denatured. The slides were immersed in an electrophoresis solution before applying an electric field (20 V-250 mA). The thus denatured DNA was subjected to migration within an agarose gel at 4° C. Applying a DNA fluorescent dye on the slides (2 μg/ml propidium iodide) allowed the DNA to be observed in the form of comets in those cases where it had been damaged.
Quantification software is used to determine the average Tail moment applied to each condition being tested. […]

[4] = test system: RA and TOTAL keratinocytes; assay: MITOSOX test (mitochondrial production of free radicals under H2O2 or UVB stress); format: cell-based, human; conditions: peptide at 1% and 3%, 48 hours, stress 5 mM H2O2 30 minutes or UVB 100 mJ/cm^2
Excerpt: Mitosox is a reactant marketed by Invitrogen (molecular probes M36008). It is used during UV and H2O2 oxidative stress. It uses microscopic imaging to measure the mitochondrial production of free radicals (ROS) in cells. More particularly, Mitosox is specific to the superoxide anion, which is the predominant form of ROS.
Mitosox is applied to living cells: it permeates the membrane and once inside the cell, diffuses rapidly and specifically within the mitochondria. Once in the mitochondria, Mitosox is oxidized by the superoxide anion into a compound which provides red fluorescence. This reactant is easily oxidized by the superoxide anion but not by other free radicals, nor by reactive species of nitrogen (NOS).
RA and TOTAL keratinocytes (where TOTAL denotes an entire cellular fraction) were treated three times per day with the peptide compound of SEQ ID NO: 3 at concentrations of 1% and 3%, for 48 hours.
In a second step, the cells were placed under stress, caused: • either by exposure to 5 mM H2O2 solution for 30 minutes; • or by UVB radiation at 100 mJ/cm^2.
After stress application, the cells were rinsed and then returned into a suitable medium for one hour at 37° C. in a culture incubator. […] The results were read using fluorescence microscopy.

For “Arg-Glu-Met-Asn-Trp-NH2 (REMNW-NH2) [SEQ ID NO: 2]”, the “expression of the Survivin protein” value ([1]; fraction RA (very rich in epidermal adult stem cells)) was “increased”, the “expression of the Survivin protein” value ([1]; fraction SA1 (less rich in epidermal adult stem cells)) was “increased” and the “fluorescent values of Keratin K19” value [2] was “+102.7%”. The “Tail Moment decrease vs UVB control” value [3] was 44.7%.
DAREMNWDT [SEQ ID NO: 3] was tested, and the “number of fluorescent cells (Mitosox, free radical production)” value [4] was “extremely low”.
